Assay results published in ChEMBL document CHEMBL1201862, “PubChem BioAssay data set” (2004).
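A five-concentration, 48-hour dose response in 96-well plates underlies each endpoint, interpolated linearly between surrounding concentrations. At the GI50, growth is halved.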 Calls of active or inactive are those of the source. Rule as the data show it: active = GI50 up to about 1.1 µM and inactive = higher.

Assays:
Test in all cases: inhibition of tumour cell growth, NCI panel, 48 h
786-0 = tested on: 786-0
CCRF-CEM = tested on: CCRF-CEM
DU-145 = tested on: DU-145
HOP-62 = tested on: HOP-62
HOP-92 = tested on: HOP-92
HT-29 = tested on: HT-29
K562 = tested on: K562
LOX IMVI = tested on: LOX IMVI
MCF7 = tested on: MCF7
NCI-H460 = tested on: NCI-H460
NCI/ADR-RES = tested on: NCI/ADR-RES
OVCAR-3 = tested on: OVCAR-3
OVCAR-4 = tested on: OVCAR-4
RXF 393 = tested on: RXF 393
SF-268 = tested on: SF-268
SF-295 = tested on: SF-295
SK-MEL-28 = tested on: SK-MEL-28
SK-MEL-2 = tested on: SK-MEL-2
SNB-19 = tested on: SNB-19
U-251 = tested on: U-251

Row | Compound | GI50 (786-0) | GI50 (CCRF-CEM) | GI50 (DU-145) | GI50 (HOP-62) | GI50 (HOP-92) | GI50 (HT-29) | GI50 (K562) | GI50 (LOX IMVI) | GI50 (MCF7) | GI50 (NCI-H460) | GI50 (NCI/ADR-RES) | GI50 (OVCAR-3) | GI50 (OVCAR-4) | GI50 (RXF 393) | GI50 (SF-268) | GI50 (SF-295) | GI50 (SK-MEL-28) | GI50 (SK-MEL-2) | GI50 (SNB-19) | GI50 (U-251)
1 | N#CC1(C#N)C2C=CC(C3CC=CC32)C1(C#N)C#N (stereo not given) | 1.79 µM (inactive) | 1.27 µM (inactive) | 9.55 µM (inactive) | 12.9 µM (inactive) | 4.27 µM (inactive) | 9.71 µM (inactive) | 2.4 µM (inactive) | 8.59 µM (inactive) | 6.52 µM (inactive) | > 50 µM (inactive) | 12.9 µM (inactive) | 2.45 µM (inactive) | 4.01 µM (inactive) | 5.16 µM (inactive) | 11.2 µM (inactive) | 21.5 µM (inactive) | 10.9 µM (inactive) | 13.1 µM (inactive) | > 50 µM (inactive) | 10.4 µM (inactive)
2 | CC(=O)NC1=C(C)C(=O)c2c(nc3n2CC[C@H]3OC(C)=O)C1=O | 1.95 µM (inactive) | 0.33 µM (active) | 15.9 µM (inactive) | 10.8 µM (inactive) | 0.416 µM (active) | 2.47 µM (inactive) | 1.12 µM (active) | 0.718 µM (active) | 1.49 µM (inactive) | 2.95 µM (inactive) | 2.06 µM (inactive) | 0.0982 µM (active) | 0.891 µM (active) | 1.73 µM (inactive) | 2.87 µM (inactive) | 2.1 µM (inactive) | 2.22 µM (inactive) | 1.41 µM (inactive) | 5.5 µM (inactive) | 1.59 µM (inactive)
3 | CCc1[nH]c(=O)nc(N)c1-c1ccc(N2CCCCC2)c([N+](=O)[O-])c1 | > 100 µM (inactive) | > 100 µM (inactive) | > 100 µM (inactive) | > 100 µM (inactive) | > 100 µM (inactive) | > 100 µM (inactive) | > 100 µM (inactive) | > 100 µM (inactive) | > 100 µM (inactive) | > 100 µM (inactive) | > 100 µM (inactive) | > 100 µM (inactive) | > 100 µM (inactive) | > 100 µM (inactive) | > 100 µM (inactive) | > 100 µM (inactive) | > 100 µM (inactive) | > 100 µM (inactive) | > 100 µM (inactive) | > 100 µM (inactive)
4 | COC(=O)/C=C/c1ccccc1N=[S@](C)(=O)c1ccc(C)cc1 | 27.9 µM (inactive) | 11.5 µM (inactive) | 29.1 µM (inactive) | 24.2 µM (inactive) | 35 µM (inactive) | 7.93 µM (inactive) | 4.09 µM (inactive) | 23.5 µM (inactive) | 13.4 µM (inactive) | 18.4 µM (inactive) | 7.13 µM (inactive) | 14.6 µM (inactive) | 26.1 µM (inactive) | 13.2 µM (inactive) | 29.4 µM (inactive) | 5.96 µM (inactive) | 16.4 µM (inactive) | 21.8 µM (inactive) | 19.1 µM (inactive) | 17.7 µM (inactive)
5 | CCOc1cc(C2CC(c3ccc(NS(=O)(=O)c4cc([N+](=O)[O-])ccc4C)cc3)=NN2)ccc1O (stereo not given) | 20.1 µM (inactive) | 30.8 µM (inactive) | 36.6 µM (inactive) |  | 45 µM (inactive) | 26.8 µM (inactive) | 24.5 µM (inactive) | 22.5 µM (inactive) | 21.5 µM (inactive) |  | 24.2 µM (inactive) | 15.3 µM (inactive) | 22.8 µM (inactive) | 18.6 µM (inactive) | 45.5 µM (inactive) |  | 32.4 µM (inactive) | 21.7 µM (inactive) | 30.3 µM (inactive) | 
6 | CCCCC1CCCCCCc2[nH]c(/C=C3\N=C(c4ccc[nH]4)C=C3OC)cc21 (stereo not given) | < 0.01 µM (active) | < 0.01 µM (active) | < 0.0109 µM (active) | 0.0181 µM (active) | < 0.0119 µM (active) | < 0.01 µM (active) | < 0.01 µM (active) | < 0.01 µM (active) | < 0.0139 µM (active) | < 0.01 µM (active) | < 0.0169 µM (active) | < 0.01 µM (active) | < 0.0127 µM (active) | 0.078 µM (active) | 0.0676 µM (active) | < 0.0191 µM (active) | < 0.0162 µM (active) | < 0.0124 µM (active) | 0.151 µM (active) | < 0.0122 µM (active)
7 | NCCCCN(CCCN)C(=O)c1ccccc1 | > 100 µM (inactive) | > 100 µM (inactive) | > 100 µM (inactive) | > 100 µM (inactive) | > 100 µM (inactive) | > 100 µM (inactive) | > 100 µM (inactive) |  | > 100 µM (inactive) | > 100 µM (inactive) | > 100 µM (inactive) | > 100 µM (inactive) | > 100 µM (inactive) | > 100 µM (inactive) | > 100 µM (inactive) | > 100 µM (inactive) | > 100 µM (inactive) | > 100 µM (inactive) | > 100 µM (inactive) | > 100 µM (inactive)
